Results published in patent publication US12697331B2, “Methods of use of T-type calcium channel modulators” (PRAXIS PRECISION MEDICINES, INC., priority 2020, dated 2026).
Structures can show the parent of a compound that is named as a salt.

Columns and labels:
gamma band EEG power = test: qEEG: gamma band EEG power (eyes open / eyes closed); assay type: in vivo, human; conditions: Part B, beginning at 60 mg and continuing through to 120 mg
Description: It appears a maximal effect in gamma reduction was not achieved.
The eyes open (EO) and eyes closed (EC) gamma absolute power for each individual was also estimated at specific time points across the study days.

hCav3.2 = biological target: T1, hCav3.2 (Homo sapiens, UniProt O95180); test: PatchXpress patch clamp, voltage dependent block (half-inactivated state, V0.5); assay type: cell-based; conditions: for Inhibition of hCav3.2 peak current, voltage dependent block (percent inhibition), mean: half-inactivated state (V0.5)
T1 construct: expressed in transfected cells; host or cells: HEK-293 (cultured under G418 selection)
Method: (§1) The voltage dependence of calcium channel isoforms was determined by comparing the activity of resting (Tonic Block) and half-inactivated (Voltage Dependent Block) voltages across various concentrations of Formula (II). First, HEK-293 cells containing hCav3.1, hCav3.2, or hCav3.3 calcium channel isoforms were prepared by seeding at 2×10^6 cells per flask in culture for 2 days; the cells were then harvested at about 6×10^6 cells. Harvested cells were washed once in DPBS for approximately 30 minutes, and 1 mL of 1× (0.05%) Trypsin-EDTA was added, swirled, and allowed to sit on the cells for approximately 4 minutes. 10 mL of warmed DMEM high glucose media supplemented with 10% fetal bovine serum, 2 mM sodium pyruvate, 10 mM HEPES, and 400 μg/mL G418 was added, and the cells were triturated until a single cell suspension was […]. Cells were placed in a 250 mL centrifuge tube with 30 mL warmed media and gently rocked at 28° C. for approximately 1 hour. Cell aliquots of 5 mLs (1×10^6 cells) were then centrifuged at 100× for 2 minutes, and supernatant was removed. Next, 100 μl of external recording solution was added to the remaining cell pellet and triturated 20 times to achieve a single cell suspension.
(§2) Immediately prior to assay, Formula (II) was diluted with DMSO to 300× the designated final concentration. All studies were performed using the Molecular Devices PatchXpress automated patch clamp platform at room temperature.
(§3) Pharmacology was measured during Epoch 1. Percent inhibition was calculated as: 100*((([Step 2+Step 5]/2)−Step 3)/(Step 2+Step 5/2)), wherein Step 2 is the peak current measured at baseline, Step 5 is the current measured during the wash period, and Step 3 is the peak current measured during application of the compound. The average of the final 3 consecutive currents in each experimental procedure was used for all calculations. The concentration response curve was fit with a Hill equation to derive IC50, slope, minimum response, and maximum response fitting parameters.
(§4) To calculate the hCav3.1, hCav3.2, and hCav3.3 peak current from a half-inactivated state (voltage dependent block), currents were first evoked by depolarizing pulses to −25 mV (10 ms) from a non-inactivating holding potential (−120 mV) at a frequency of 0.1 Hz. After current amplitude became stable, the mid-point average of steady state inactivation was determined for each cell using a series of 9,900 ms conditioning steps to increasingly depolarize voltages (ranging from Vhold (−120 mV) to −40 mV) preceding a test pulse to −25 mV (10 ms) to establish the magnitude of inactivation. The holding command potential was then set to the voltage that produced approximately 50% inactivation (V0.5) using PatchXpress scripts. From this V0.5 potential, a voltage step to −25 mV (10 ms) was used to evoque peak current. The voltage was stepped to −120 mv (50 ms) to evoque tail currents and monitor cell integrity.
(§5) The effect of the compound on peak current amplitude was monitored using the voltage protocol described above and washed out after reaching steady state as determined by PatchXpress stability scripts. Washout was performed at the original holding potential of −120 mV to facilitate reversal of state-dependent interactions. Washout current for the calculation of inhibition was determined by resetting the holding potential to the previously determined half-inactivation potential (V0.5) and measuring peak current from this holding potential. Pharmacology was measured during Epoch 1, and percent inhibition was calculated as discussed above for tonic block.

hCav3.1 = biological target: T2, hCav3.1 (Homo sapiens, UniProt O43497); test: as above; assay type: cell-based; conditions: for Inhibition of hCav3.1 peak current, voltage dependent block (percent inhibition), mean: half-inactivated state (V0.5)
T2 construct: expressed in transfected cells; host or cells: HEK-293 (cultured under G418 selection)
T2 sequence (O43497 whole entry): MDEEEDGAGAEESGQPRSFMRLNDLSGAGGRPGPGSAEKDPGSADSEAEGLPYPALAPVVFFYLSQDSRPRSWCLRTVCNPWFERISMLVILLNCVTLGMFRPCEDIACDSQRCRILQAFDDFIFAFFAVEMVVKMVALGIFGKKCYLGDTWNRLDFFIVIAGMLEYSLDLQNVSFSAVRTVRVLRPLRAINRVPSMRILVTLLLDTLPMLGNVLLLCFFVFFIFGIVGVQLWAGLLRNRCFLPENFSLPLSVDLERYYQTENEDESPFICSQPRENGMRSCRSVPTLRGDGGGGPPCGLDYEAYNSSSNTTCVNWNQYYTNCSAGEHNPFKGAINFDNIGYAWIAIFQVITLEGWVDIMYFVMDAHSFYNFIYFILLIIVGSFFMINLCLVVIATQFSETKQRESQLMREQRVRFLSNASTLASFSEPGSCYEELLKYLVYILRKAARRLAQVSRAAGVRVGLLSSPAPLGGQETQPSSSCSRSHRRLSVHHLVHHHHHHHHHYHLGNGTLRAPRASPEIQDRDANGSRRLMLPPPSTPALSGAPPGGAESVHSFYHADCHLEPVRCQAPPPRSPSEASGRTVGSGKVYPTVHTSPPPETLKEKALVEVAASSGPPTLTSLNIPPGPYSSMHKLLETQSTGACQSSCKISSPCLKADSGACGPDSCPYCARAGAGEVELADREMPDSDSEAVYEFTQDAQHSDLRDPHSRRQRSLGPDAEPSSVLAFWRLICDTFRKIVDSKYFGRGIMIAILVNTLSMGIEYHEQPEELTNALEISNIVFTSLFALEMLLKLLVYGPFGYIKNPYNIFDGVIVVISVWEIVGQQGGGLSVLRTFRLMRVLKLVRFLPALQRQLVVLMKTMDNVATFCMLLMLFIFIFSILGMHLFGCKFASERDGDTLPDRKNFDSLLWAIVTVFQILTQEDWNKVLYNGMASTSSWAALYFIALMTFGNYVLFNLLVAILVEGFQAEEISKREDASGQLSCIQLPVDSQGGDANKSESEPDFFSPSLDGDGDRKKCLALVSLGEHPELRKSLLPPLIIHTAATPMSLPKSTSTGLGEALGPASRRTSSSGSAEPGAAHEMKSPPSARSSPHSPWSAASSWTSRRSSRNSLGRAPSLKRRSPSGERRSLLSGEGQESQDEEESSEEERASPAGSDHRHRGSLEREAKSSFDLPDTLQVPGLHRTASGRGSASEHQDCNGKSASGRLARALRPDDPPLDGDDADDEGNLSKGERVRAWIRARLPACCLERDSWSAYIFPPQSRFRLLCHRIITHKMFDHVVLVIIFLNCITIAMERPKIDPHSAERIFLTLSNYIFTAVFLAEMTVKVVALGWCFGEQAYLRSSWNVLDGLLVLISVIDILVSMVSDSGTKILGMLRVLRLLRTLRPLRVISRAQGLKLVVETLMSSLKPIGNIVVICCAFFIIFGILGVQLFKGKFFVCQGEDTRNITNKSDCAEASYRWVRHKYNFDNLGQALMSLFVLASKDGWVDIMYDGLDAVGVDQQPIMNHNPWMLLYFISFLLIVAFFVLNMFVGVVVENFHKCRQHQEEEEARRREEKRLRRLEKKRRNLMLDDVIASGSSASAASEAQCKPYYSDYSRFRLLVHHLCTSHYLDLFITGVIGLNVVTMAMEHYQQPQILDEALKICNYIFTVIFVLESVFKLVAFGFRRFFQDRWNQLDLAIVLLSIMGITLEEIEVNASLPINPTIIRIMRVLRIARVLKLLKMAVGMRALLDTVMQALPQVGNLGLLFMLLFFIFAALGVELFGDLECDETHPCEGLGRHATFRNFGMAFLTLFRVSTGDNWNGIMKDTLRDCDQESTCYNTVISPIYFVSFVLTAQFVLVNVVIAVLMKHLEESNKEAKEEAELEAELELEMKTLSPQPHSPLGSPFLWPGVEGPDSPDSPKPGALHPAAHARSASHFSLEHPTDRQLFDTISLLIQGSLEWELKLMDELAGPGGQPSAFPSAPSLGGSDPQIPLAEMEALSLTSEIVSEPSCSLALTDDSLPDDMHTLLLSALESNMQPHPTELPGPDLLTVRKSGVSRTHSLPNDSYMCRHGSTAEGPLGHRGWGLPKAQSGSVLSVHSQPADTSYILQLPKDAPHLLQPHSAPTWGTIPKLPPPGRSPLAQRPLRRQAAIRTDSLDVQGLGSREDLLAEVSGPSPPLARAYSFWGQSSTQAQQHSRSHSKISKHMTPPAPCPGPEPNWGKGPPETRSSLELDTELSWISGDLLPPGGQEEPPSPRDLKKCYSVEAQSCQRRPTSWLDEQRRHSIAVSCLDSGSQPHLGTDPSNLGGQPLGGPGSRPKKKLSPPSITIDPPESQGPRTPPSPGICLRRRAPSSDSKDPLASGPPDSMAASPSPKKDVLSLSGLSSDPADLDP
Method: as §1, §2, §3, §4, §5

hCav3.3 = biological target: T3, hCav3.3 (Homo sapiens, UniProt Q9P0X4); test: as above; assay type: cell-based; conditions: for Inhibition of hCav 3.3 peak current, voltage dependent block (percent inhibition), mean: half-inactivated state (V0.5)
T3 construct: expressed in transfected cells; host or cells: HEK-293 (cultured under G418 selection)
T3 sequence (Q9P0X4 whole entry): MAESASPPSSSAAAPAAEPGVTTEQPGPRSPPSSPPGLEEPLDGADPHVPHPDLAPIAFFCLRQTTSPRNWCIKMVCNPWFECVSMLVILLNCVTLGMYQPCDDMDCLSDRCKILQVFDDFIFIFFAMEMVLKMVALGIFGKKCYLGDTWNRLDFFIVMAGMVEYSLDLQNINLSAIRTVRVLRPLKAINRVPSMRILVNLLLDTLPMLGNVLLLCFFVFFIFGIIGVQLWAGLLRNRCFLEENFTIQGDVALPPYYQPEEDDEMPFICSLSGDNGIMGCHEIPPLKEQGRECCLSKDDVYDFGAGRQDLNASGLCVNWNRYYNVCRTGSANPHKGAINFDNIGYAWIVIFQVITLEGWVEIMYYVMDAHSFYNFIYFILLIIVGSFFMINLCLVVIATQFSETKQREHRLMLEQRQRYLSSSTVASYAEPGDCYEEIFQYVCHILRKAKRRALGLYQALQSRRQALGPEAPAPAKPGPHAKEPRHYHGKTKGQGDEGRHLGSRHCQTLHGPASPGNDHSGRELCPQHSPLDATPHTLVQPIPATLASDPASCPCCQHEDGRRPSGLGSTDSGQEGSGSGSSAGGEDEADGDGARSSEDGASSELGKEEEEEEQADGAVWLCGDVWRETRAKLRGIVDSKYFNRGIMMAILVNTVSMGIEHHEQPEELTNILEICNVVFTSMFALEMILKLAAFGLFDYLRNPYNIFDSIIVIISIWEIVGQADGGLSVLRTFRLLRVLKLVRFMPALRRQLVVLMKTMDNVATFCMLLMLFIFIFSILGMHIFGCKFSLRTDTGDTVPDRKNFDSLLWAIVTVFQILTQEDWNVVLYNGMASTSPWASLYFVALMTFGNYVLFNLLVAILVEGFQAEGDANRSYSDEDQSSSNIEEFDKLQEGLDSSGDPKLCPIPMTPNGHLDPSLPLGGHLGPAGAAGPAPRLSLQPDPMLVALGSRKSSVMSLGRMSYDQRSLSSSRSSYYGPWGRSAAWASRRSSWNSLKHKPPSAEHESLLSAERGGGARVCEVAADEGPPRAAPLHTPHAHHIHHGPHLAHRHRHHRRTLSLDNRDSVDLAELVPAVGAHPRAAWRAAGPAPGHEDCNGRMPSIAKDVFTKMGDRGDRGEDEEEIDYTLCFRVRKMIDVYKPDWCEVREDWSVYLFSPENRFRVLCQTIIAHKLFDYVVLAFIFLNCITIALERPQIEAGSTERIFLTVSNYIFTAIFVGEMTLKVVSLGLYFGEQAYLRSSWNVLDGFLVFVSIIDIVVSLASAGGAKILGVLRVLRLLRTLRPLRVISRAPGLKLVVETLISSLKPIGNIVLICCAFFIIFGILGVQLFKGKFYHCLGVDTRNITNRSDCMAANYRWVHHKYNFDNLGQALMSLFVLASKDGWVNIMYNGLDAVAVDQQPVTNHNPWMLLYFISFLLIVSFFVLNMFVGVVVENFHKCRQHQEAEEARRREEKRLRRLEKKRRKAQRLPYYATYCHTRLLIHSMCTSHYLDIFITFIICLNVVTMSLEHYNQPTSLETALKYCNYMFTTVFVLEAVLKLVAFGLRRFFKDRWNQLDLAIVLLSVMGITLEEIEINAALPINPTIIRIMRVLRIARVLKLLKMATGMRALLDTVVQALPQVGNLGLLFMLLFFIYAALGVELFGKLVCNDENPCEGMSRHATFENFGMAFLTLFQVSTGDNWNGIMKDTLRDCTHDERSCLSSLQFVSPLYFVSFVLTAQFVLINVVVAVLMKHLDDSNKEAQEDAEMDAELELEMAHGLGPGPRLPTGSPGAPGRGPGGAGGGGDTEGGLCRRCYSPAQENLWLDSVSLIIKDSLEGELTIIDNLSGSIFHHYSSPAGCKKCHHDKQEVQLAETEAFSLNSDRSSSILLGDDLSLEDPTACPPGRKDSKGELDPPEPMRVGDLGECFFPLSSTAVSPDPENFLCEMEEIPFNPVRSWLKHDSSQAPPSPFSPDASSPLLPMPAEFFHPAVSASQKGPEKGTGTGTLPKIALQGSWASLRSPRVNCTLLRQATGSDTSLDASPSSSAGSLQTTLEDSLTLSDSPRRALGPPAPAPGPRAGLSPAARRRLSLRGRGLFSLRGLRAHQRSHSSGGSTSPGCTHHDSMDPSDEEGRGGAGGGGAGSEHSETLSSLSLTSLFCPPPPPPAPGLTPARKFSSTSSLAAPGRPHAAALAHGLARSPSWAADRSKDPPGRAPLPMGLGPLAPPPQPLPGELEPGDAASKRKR
Method: as §1, §2, §3, §4, §5

## CC(C)(C)NC(=O)CN1CCC(CNC(=O)c2cc(F)cc(Cl)c2)CC1 [compound of formula (II), N-((1-(2-(tert-butylamino)-2-oxoethyl)piperidin-4-yl)methyl)-3-chloro-5-fluorobenzamide hydrochloride]
Gamma band EEG power
  Effect on gamma band EEG power: dose-related reduction
hCav3.2; 0.03 μm
  Inhibition of hCav3.2 peak current, voltage dependent block (percent inhibition), mean: 16.6 (11)
hCav3.2; 0.09 μm
  Inhibition of hCav3.2 peak current, voltage dependent block (percent inhibition), mean: 31.2 (7)
hCav3.2; 0.27 μm
  Inhibition of hCav3.2 peak current, voltage dependent block (percent inhibition), mean: 48.4 (9)
hCav3.2; 0.91 μm
  Inhibition of hCav3.2 peak current, voltage dependent block (percent inhibition), mean: 78.8 (12)
hCav3.2; 2.74 μm
  Inhibition of hCav3.2 peak current, voltage dependent block (percent inhibition), mean: 91.6 (13)
hCav3.2; hCav3.2
  tonic block/voltage dependent block (TB/VDB) ratio: 2.0
hCav3.1; 0.03 μm
  Inhibition of hCav3.1 peak current, voltage dependent block (percent inhibition), mean: 13.9 (12)
hCav3.1; 0.09 μm
  Inhibition of hCav3.1 peak current, voltage dependent block (percent inhibition), mean: 29.7 (14)
hCav3.1; 0.27 μm
  Inhibition of hCav3.1 peak current, voltage dependent block (percent inhibition), mean: 55.2 15)
hCav3.1; 0.91 μm
  Inhibition of hCav3.1 peak current, voltage dependent block (percent inhibition), mean: 73.8 (9)
hCav3.1; 2.74 μm
  Inhibition of hCav3.1 peak current, voltage dependent block (percent inhibition), mean: 84.6 (9)
hCav3.1; 9.13 μm
  Inhibition of hCav3.1 peak current, voltage dependent block (percent inhibition), mean: 86.0 (7)
hCav3.1; hCav3.1
  tonic block/voltage dependent block (TB/VDB) ratio: 3.8
hCav3.3; 0.03 μm
  Inhibition of hCav 3.3 peak current, voltage dependent block (percent inhibition), mean: 12.9 (8)
hCav3.3; 0.09 μm
  Inhibition of hCav 3.3 peak current, voltage dependent block (percent inhibition), mean: 26.9 (17)
hCav3.3; 0.27 μm
  Inhibition of hCav 3.3 peak current, voltage dependent block (percent inhibition), mean: 58.7 (19)
hCav3.3; 0.91 μm
  Inhibition of hCav 3.3 peak current, voltage dependent block (percent inhibition), mean: 76.9 (20)
hCav3.3; 2.74 μm
  Inhibition of hCav 3.3 peak current, voltage dependent block (percent inhibition), mean: 89.4 (20)
hCav3.3; 9.13 μm
  Inhibition of hCav 3.3 peak current, voltage dependent block (percent inhibition), mean: 92.9 (4)
hCav3.3; hCav3.3
  tonic block/voltage dependent block (TB/VDB) ratio: 4.0
